The values below come from patent publication US20200289456A1, “METHODS FOR INHIBITING TUMORS AND DRUG RESISTANCE” (SEQUOIA PHARMACEUTICALS, INC., priority 2015, published 2020).

The data set has as its system tumors expressing high levels of CYP3A4. The data set is described as follows: Combination of Docataxel and an ICI in patients (21 day treatment cycle). The class given is in vivo. The method, then: The compound of formula IA (150 mg po qd) is administered to patients for the first 3 days of a 21 day treatment cycle. Escalating doses of Docataxel are administered IV beginning on day 4. Docataxel is dose-escalated at 15, 25, 40, and 50 mg/m^2, where the standard dose is 75 mg/m^2.

`CCCCCCN(CCCN(CC(C)C)S(=O)(=O)c1ccc2occc2c1)C(=O)OC(C)(C)C` [IA]: under “IA 150 mg po qd days 1-3, Docataxel IV from day 4”, the “cancer cell kill in tumors expressing high levels of CYP3A4” value was “improves cancer cell kill”. In addition, the “toxicity of Docataxel” value (IA 150 mg po qd days 1-3, lower dose of docataxel and lower Cmax while maintaining AUC) is on record as “diminishes toxicity”. Further, the “variability in AUC and drug response of Docataxel” value (IA 150 mg po qd days 1-3 of 21 day cycle, Docataxel IV from day 4, 15-50 mg/m^2) was “decreases variability in AUC and drug response”.
